Measurements published in article PMC2527810, “[^18F]FDG and [^18F]FLT uptake in human breast cancer cells in relation to the effects of chemotherapy: an in vitro study” (British Journal of Cancer, 2008).

How the values were obtained:
MDA MB231 cells [1] = assay: Cellular FLT uptake after drug incubation; assay type: cell-based, human; details: IC50 concentration
Procedure: (§1) Cells were plated in six identical 24-well plates at 75 000 cells per ml. […] Control cells were plated in a concentration of 45 000 cells per ml, 4 days before tracer uptake. Cell culture medium was replaced 4 h before adding PET tracers. For FDG plates, medium was replaced with medium without glucose (+IC50 drugs concentration), as glucose competes with FDG uptake. For FLT plates, medium was replaced with medium without L-glutamine (+IC50 drugs concentration). The presence of L-glutamine in the culture medium may reduce FLT uptake, as glutamine is a source of thymidine monophosphate competing with FLT uptake through the de novo pathway.
(§2) One MBq per well FDG or FLT was added to the cells and incubated for 60 min at 37°C. After removal of excess tracer, cellular tracer uptake was determined with an ECAT Exact HR+ PET scanner (Siemens/CTI, Knoxville, TN, USA). Images were analysed using CAPP software (version 7.2, CTI/Siemens, Knoxville, TN, USA). Regions of interest (ROI) were drawn manually in a plane with visible tracer uptake. Next, ROIs were copied to all other planes and total activity per well was calculated and plotted against exact number of cells. Tracer uptake was also determined in an identical plate using the single-well gamma counter. Tracer uptake was corrected for the number of cells.

[2] = system: TK-1 protein levels of MDA MB231 cells; assay: TK-1 protein levels by Western blot; details: for increase in TK-1 levels compared with untreated cells: abstract, time not stated
MDA MB231 cells [3] = assay: Cellular FDG uptake after drug incubation; assay type: cell-based, human; details: IC50 concentration
Procedure: as §1, §2

[4] = system: Thymidine kinase (TK) activity in MDA MB231 breast cancer cells; assay: TK enzyme activity (FLT phosphorylation) in lysates of drug-treated cells; assay type: cell-based, human; details: IC50 concentration; for TK activity compared with untreated cells (in words): 48 and 72 h, effects minor
Procedure: . Enzyme activity was also analysed in CEM cells and in the corresponding TK-1-deficient subtype to assess whether FLT phosphorylation only occurs in the presence of sufficient cytosolic TK-1.
Cell pellets were suspended in 50 mM Tris/1 mM EDTA (pH 7.4) and sonificated on ice. Lysates were spun down and supernatant diluted 1 : 8 in 50 mM Tris/1 mM EDTA (pH 7.4).
3′-deoxy-3′-[^18F]fluorothymidine was diluted with 50 mM Tris/1 mM EDTA (pH 7.4) and 1 : 1 mixed with 20 mM ATP, 10 mM MgCl2, resulting in an FLT concentration of about 60 MBq ml^−1 (6.32–18.89 pmol per sample). […] .
The assay was optimised for protein concentration and incubation times. Diluted cell lysates or purified TK-2 (kindly provided by A. Karlsson, Karolinska Institute, Stockholm, Sweden) were incubated with the FLT mixture for 15 min at 37°C and the reaction was stopped by heating the samples at 95°C for 5 min. Substrate (FLT) and product (FLT-phosphate) were separated by TLC and radioactivity was measured in a single-well gamma counter (Wallac1480 Wizard, Perkin Elmer Lifescience, MA, USA). Protein concentrations were measured in a Bio-Rad Bradford protein assay (Bio-Rad Laboratories, Hercules, CA, USA).

MDA MB231 cells [5] = assay: Cytotoxicity by sulforhodamine (SRB) assay; assay type: cell-based; details: Homo sapiens, MDA-MB-231, 72 h drug incubation, read-out: IC50 (50% reduction in growth)
Procedure: The human breast cancer cell line MDA MB231 (ATCC no. HTB-26) and CEM leukaemia cells (CEM wild type and TK-deficient CEM/TK-) were cultured in RPMI 1640 supplemented with 10% foetal bovine serum and 1% penicillin/streptomycin (P/S), at 5% CO2 in a humidified atmosphere at 37°C. Cell counting was performed with a Casy cell counter (Schärfe System GmbH, Reutlingen, Germany).
Cytotoxicity to 5-FU (Sigma Chemical Co., MO, St Louis, USA), doxorubicin (doxorubicin hydrochloride, Pfizer, Cappelle a/d IJssel, The Netherlands) and paclitaxel (Sigma Chemical Co.) was determined by sulforhodamine (SRB) assay. Briefly, cells were plated in 96-well plates and after 24 h, drugs were added at various concentrations, incubated for 72 h and the SRB assay was performed as described previously ([de Bruin et al, 2003]). The IC50 is the concentration resulting in 50% reduction in growth compared with untreated control cells.

MDA MB231 cells [6] = assay: Cell cycle analysis after exposure to IC50 drug concentrations; assay type: cell-based, human; details: for cell cycle effect (in words): at IC50 concentrations
Procedure: For cell cycle analysis, cells were exposed to IC50 concentrations of the various drugs for 4, 24, 48 or 72 h, fixed in 70% ethanol (1 × 10^6 cells per ml) and stored at 4°C until analysis, as described previously ([Temmink et al, 2007]) according to a slightly modified protocol.

[7] = 48 h incubation, IC50 concentration

SMILES	Mean (±s.d.) change in FLT uptake compared with untreated cells (set to 100%) (MDA MB231 cells [1]; 4 h) [%]	Mean (±s.d.) change in FLT uptake compared with untreated cells (set to 100%) (MDA MB231 cells [1]; 24 h) [%]	Mean (±s.d.) change in FLT uptake compared with untreated cells (set to 100%) (MDA MB231 cells [1]; 48 h) [%]	Mean (±s.d.) change in FLT uptake compared with untreated cells (set to 100%) (MDA MB231 cells [1]; 72 h) [%]	increase in FLT uptake (MDA MB231 cells [1]; 72 h) [%]	Mean (±s.d.) change in TK-1 protein levels compared with untreated cells (set to 100%) ([2]; 4 h, IC50 concentration) [%]	Mean (±s.d.) change in TK-1 protein levels compared with untreated cells (set to 100%) ([2]; 24 h, IC50 concentration) [%]	Mean (±s.d.) change in TK-1 protein levels compared with untreated cells (set to 100%) ([2]; 48 h, IC50 concentration) [%]	Mean (±s.d.) change in TK-1 protein levels compared with untreated cells (set to 100%) ([2]; 72 h, IC50 concentration) [%]	Mean (±s.d.) change in FDG uptake compared with untreated cells (set to 100%) (MDA MB231 cells [3]; 4 h) [%]	Mean (±s.d.) change in FDG uptake compared with untreated cells (set to 100%) (MDA MB231 cells [3]; 24 h) [%]	Mean (±s.d.) change in FDG uptake compared with untreated cells (set to 100%) (MDA MB231 cells [3]; 48 h) [%]	Mean (±s.d.) change in FDG uptake compared with untreated cells (set to 100%) (MDA MB231 cells [3]; 72 h) [%]	TK activity compared with untreated cells (in words) [4]	IC50 (MDA MB231 cells [5]) [nM]	cell cycle effect (in words) (MDA MB231 cells [6])	increase in TK-1 levels compared with untreated cells [2]	increase in TK-1 levels ([2]; at 48 h, IC50 concentration)	further results
CC(=O)O[C@H]1C(=O)[C@@]2(C)[C@H]([C@H](OC(=O)c3ccccc3)[C@]3(O)C[C@H](OC(=O)[C@H](O)[C@@H](NC(=O)c4ccccc4)c4ccccc4)C(C)=C1C3(C)C)[C@]1(OC(C)=O)CO[C@@H]1C[C@@H]2O [paclitaxel]	108±2	112±54	118±14	166±18	66	103±6	62±4	54±16	52±32	105±41	125±99	207±163	228±182	increased TK activity	2.5	G2/M accumulation			FLT uptake change (in words) (MDA MB231 cells [1]; abstract): hardly changed; decrease in TK-1 levels ([2]; at 48 h, IC50 concentration): > 40%; increase in FDG uptake (MDA MB231 cells [3]; after 48 h (at 48 and 72 h)): > 100%; increase in G2/M phase (MDA MB231 cells [6]; 4 h drug incubation, IC50 concentration): 1.2 fold
O=c1[nH]cc(F)c(=O)[nH]1 [5-FU, 5-fluorouracil]	99±45	113±7	101±8	46±32		163±1	122±38	184±53	443±58	67±2	70±13	69±21	45±20	increased TK activity	5000	accumulation in the G1 phase	> 300	two-fold	decrease in FLT uptake (MDA MB231 cells [1]; 72 h): 54%; decrease in FLT uptake (MDA MB231 cells [1]; 72 h, listed as 5-fluorouracil): approximately 50%; decrease in FDG uptake (MDA MB231 cells [3]; 72 h, listed as 5-fluorouracil): approximately 50%
COc1cccc2c1C(=O)c1c(O)c3c(c(O)c1C2=O)C[C@@](O)(C(=O)CO)C[C@@H]3O[C@H]1C[C@H](N)[C@H](O)[C@H](C)O1 [doxorubicin]	123±83	137±52	494±232	273±209	173	64±6	130±78	177±71	473±348	57±35	124±59	133±45	171±0		200	G2/M accumulation	> 300	two-fold	increase in FLT uptake (MDA MB231 cells [1]; irrespective of incubation time): > 24%; increase in FDG uptake (MDA MB231 cells [3]; 72 h): 71%; increase in FDG uptake (MDA MB231 cells [3]; at 24, 48 and 72 h): > 24%; increase in TK activity compared with untreated cells ([4]; after 24 h): more than three-fold; decrease in G1 phase (MDA MB231 cells [6]; [7]): 90%; decrease in S phase (MDA MB231 cells [6]; [7]): 70%; accumulation in the G2/M phase (MDA MB231 cells [6]; 48 h incubation, IC50 concentration, vs control cells): two-fold
